Data set [1] concerns the target T1, 5-hydroxytryptamine receptor 2C (Homo sapiens, UniProt P28335).
T1 sequence (P28335 whole entry): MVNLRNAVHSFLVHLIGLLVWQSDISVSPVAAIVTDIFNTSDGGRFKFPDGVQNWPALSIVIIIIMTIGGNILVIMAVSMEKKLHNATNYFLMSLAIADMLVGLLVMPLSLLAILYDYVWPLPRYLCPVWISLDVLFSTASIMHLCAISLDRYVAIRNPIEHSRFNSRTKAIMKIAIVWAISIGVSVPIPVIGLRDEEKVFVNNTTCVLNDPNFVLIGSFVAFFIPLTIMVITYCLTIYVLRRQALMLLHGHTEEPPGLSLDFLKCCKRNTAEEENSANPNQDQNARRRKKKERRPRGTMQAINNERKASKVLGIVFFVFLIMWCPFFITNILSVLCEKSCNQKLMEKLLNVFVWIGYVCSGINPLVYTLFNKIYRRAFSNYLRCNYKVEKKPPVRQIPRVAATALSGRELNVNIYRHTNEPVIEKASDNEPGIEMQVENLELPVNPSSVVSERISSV
The experiment in a line: Binding affinity against 5-hydroxytryptamine 2C receptor.

The nature of data set [2]: Steady state concentration was evaluated. Type of data set: ADME.
The nature of data set [3]: Brain level determined after 4 hr from a bolus 10 mg/kg ip dosing. The class given is functional. The conditions noted are these: route intraperitoneal.
Data set [4] can be described thus: Brain level determined after 2 hr from ip bolus dosing of 10 mg/kg. To be noted: route intraperitoneal. The class given is functional.
For data set [5], the target named is T2, Orexin/Hypocretin receptor type 1 (Homo sapiens) (UniProt O43613).
T2 sequence (whole entry): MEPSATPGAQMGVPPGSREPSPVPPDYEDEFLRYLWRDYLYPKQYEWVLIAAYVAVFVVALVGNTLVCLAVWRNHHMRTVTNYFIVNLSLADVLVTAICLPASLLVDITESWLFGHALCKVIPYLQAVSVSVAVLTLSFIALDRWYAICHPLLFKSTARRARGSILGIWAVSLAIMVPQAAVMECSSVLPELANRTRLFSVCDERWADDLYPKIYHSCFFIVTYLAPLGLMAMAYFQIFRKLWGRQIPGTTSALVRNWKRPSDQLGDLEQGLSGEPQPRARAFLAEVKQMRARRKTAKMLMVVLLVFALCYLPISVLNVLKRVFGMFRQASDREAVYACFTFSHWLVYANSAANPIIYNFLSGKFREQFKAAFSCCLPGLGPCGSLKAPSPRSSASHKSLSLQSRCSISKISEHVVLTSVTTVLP
The experiment in a line: Binding affinity towards orexin receptor type 1.

A short description of data set [6]: Compound was tested in vivo for steady state brain-blood ratio after intravenous infusion of 1.8 mg/kg/h free base drug for 12h. The class given is functional.
The next data set in a line: in vivo. To be noted: eutheria, po.
Data set [7] deals with 5-hydroxytryptamine receptor 2B (Homo sapiens, UniProt P41595). The experiment in a line: Binding affinity against 5-hydroxytryptamine 2B receptor.
For data set [8], the target named is T3, Orexin receptor type 2 (Homo sapiens) (UniProt O43614).
T3 sequence (whole entry): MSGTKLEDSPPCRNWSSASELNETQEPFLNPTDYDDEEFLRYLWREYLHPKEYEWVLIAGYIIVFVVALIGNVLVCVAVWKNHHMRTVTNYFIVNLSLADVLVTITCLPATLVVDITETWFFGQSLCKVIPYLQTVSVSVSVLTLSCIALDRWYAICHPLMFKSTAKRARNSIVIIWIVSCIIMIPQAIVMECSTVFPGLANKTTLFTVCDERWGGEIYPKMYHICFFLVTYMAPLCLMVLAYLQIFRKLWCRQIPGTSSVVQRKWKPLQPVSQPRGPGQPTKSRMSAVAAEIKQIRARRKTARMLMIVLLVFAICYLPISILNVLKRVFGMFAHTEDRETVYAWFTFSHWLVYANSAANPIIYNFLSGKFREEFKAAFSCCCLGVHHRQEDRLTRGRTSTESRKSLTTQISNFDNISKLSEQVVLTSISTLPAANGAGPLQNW
Description: Compound was evaluated for its binding affinity towards Orexin receptor type 2

Data set [9] can be described thus: Half life was evaluated in vivo after intraperitoneal administration. The conditions noted are these: ip.

Molecules are shown by their SMILES.

Chain of 5-hydroxytryptamine receptor 2B (P41595 whole entry): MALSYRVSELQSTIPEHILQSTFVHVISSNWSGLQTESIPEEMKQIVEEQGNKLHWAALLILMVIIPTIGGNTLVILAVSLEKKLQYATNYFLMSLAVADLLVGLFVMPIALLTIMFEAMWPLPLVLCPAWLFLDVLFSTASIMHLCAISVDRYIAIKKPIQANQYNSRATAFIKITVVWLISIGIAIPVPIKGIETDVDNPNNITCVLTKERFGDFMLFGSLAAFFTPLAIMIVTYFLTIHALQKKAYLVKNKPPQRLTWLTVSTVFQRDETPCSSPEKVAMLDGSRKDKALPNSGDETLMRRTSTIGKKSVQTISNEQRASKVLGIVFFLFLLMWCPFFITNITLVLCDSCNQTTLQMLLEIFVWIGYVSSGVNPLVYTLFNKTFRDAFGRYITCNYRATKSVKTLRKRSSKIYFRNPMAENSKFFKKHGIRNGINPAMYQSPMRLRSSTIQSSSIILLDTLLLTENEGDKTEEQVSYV

As usually defined, the Ki is a measure of affinity in units of concentration, obtained from inhibition or displacement. Higher therefore signals lower affinity. The pKb is the negative decadic logarithm of the Kb, by convention in mol/L. Read a high pKb as a small Kb. Broadly, the bioavailability is dose-corrected exposure relative to a reference, in per cent. Higher therefore signals much systemic uptake. The half-life is the time needed for the level to fall by half in the phase considered. A lower half-life goes with fast loss. For `Cc1nc2ccc(NC(=O)Nc3ccnc4cccnc34)cc2o1`, the Ki was over 5.01 µM in data set [1] and 3.98 µM in [7]. For the same compound, in [2], the Css was 490 nM. For the same compound, the Brain level in [3] was under 30 nM; in data set [4], 3.8 µM. Moreover, the pKb amounted to 7.4 in data set [5] and 5.7 in [8]. Moreover, in [6], the Ratio was determined as 0.4. The compound also had a bioavailability in the data set “in vivo” of 10%. The same compound had a half-life in [9] of 24 min.

`Nc1ccc(NC(=O)Nc2ccnc3ccccc23)cc1` showed a pKb in [5] of under 6.1.

As to `Cn1ccc2cc(NC(=O)Nc3ccnc4ccccc34)ccc21`, the Ki in [1] is 0.0251 µM; in [7], 0.00251 µM. In data set [5], this compound gave a negative-log Kb (pKb) of 7.5.

As for `Cc1nc2ccc(NC(=O)Nc3ccnc4ccccc34)cc2o1`, the Ki in data set [1] and in data set [7] was 0.631 µM in each case. The pKb in data set [5] worked out at 7.7.

Turning to `O=C(Nc1ccccc1)Nc1ccnc2ccccc12`, the pKb in data set [5] was under 6.1.

`COc1ccc(NC(=O)Nc2ccnc3ccccc23)cc1OC` returned a pKb in data set [5] of under 6.3.

In the case of `Cn1ccc2cc(NC(=O)Nc3ccnc4cccnc34)ccc21`, in data set [5], the negative-log Kb (pKb) turned out to be 7.3.

The compound `CN(C)c1cccc(NC(=O)Nc2ccnc3ccccc23)c1` came in with a pKb in data set [5] of 6.1.

As to `Cn1ccc2cc(NC(=O)Nc3cccc4ccccc34)ccc21`, the pKb in data set [5] is under 6.3.

As for `O=C(Nc1ccc(N2CCCC2)cc1)Nc1ccnc2ccccc12`, the negative-log Kb (pKb) in data set [5] came to 6.4.

For the compound `CN1CCc2cc(NC(=O)Nc3ccnc4ccccc34)ccc21`, the figures for the Ki in data set [1] and in data set [7] were 0.0501 µM and 0.0126 µM, respectively. In data set [5], this compound registered a pKb of 7.6.

With `Cc1nc2ccc(NC(=O)Nc3ccnc4ccncc34)cc2o1`, in data set [5], the pKb was determined as 5.9.

In the case of `N#Cc1ccc(NC(=O)Nc2ccnc3ccccc23)cc1`, the pKb in [5] was under 6.2.

With `COc1ccc(NC(=O)Nc2ccnc3ccccc23)cc1Cl`, the Ki is 0.0501 µM in [1] and 0.0158 µM in data set [7].

In the case of `O=C(Nc1ccc2ocnc2c1)Nc1ccnc2ccccc12`, the pKb in data set [5] is under 6.2.

The compound `O=C(Nc1ccc2ncoc2c1)Nc1ccnc2ccccc12` had a pKb in data set [5] of 7.

In the case of `COc1ccc(NC(=O)Nc2ccnc3ccccc23)cc1`, the pKb in data set [5] is 6.8.

As for `O=C(Nc1ccc2c(ccn2Cc2ccccc2)c1)Nc1ccnc2ccccc12`, the pKb in [5] is under 6.1.

`O=C(Nc1ccc2[nH]ccc2c1)Nc1ccnc2ccccc12` returned a pKb in [5] of 6.2.

For `O=C(Nc1ccc2c(c1)OCCCO2)Nc1ccnc2ccccc12`, the pKb in data set [5] was 7.4.

Take `CCN(CC)c1ccc(NC(=O)Nc2ccnc3ccccc23)cc1`: the figures for the Ki in [1] and in data set [7] were 0.0316 µM and 0.0501 µM, respectively. The compound also had a Css in data set [2] of 700 nM. The pKb in data set [5] amounted to 7.4. Also, the Ratio in data set [6] is 0.16.

Take `Cn1ccc2cc(NC(=O)Nc3ccncc3)ccc21`: the pKb in [5] is under 5.

As to `O=C(Nc1cccc(Cl)c1)Nc1ccnc2ccccc12`, in data set [5], the pKb turned out to be 6.4.

Turning to `Cc1cc2cc(NC(=O)Nc3ccnc4ccccc34)ccc2n1C`, the Ki in data set [1] was 0.0794 µM; in [7], 0.00398 µM.

Turning to `CSc1ccc(NC(=O)Nc2ccnc3cccnc23)cc1`, the pKb in data set [5] was 7.5.

As for `COc1cccc(NC(=O)Nc2ccnc3ccccc23)c1`, the pKb in [5] is 6.6.

Compound `CN(C)c1ccc(NC(=O)Nc2ccnc3ccccc23)cc1Cl` yielded a pKb in data set [5] of 7.4.

As to `CN(C)c1ccc(NC(=O)Nc2ccnc3ccccc23)cc1`, the values for the Ki in data set [1] and in data set [7] were 0.126 µM and 0.0794 µM, respectively. In addition, the Css in [2] was determined as 4200 nM. In [5], this compound returned a pKb of 7.8. Also, the Ratio in [6] is reported as 0.06.

With `Cc1nc2ccc(NC(=O)Nc3ccnc4ncccc34)cc2o1`, the negative logarithm of the Kb (pKb) in [5] is 6.5.

Take `CSc1ccc(NC(=O)Nc2ccnc3ccccc23)cc1`: the Ki in data set [1] and in [7] was 0.0316 µM each time. In addition, the Css in data set [2] was 1000 nM. The compound also had a pKb in [5] of 7.9. The Ratio in [6] was found to be 0.1.

In data set [5], `Cn1ccc2cc(NC(=O)Nc3ncnc4ccccc34)ccc21` yielded a pKb of under 6.3.
